For assay [1], the system named is human ovarian carcinoma cells (1A9). The experiment in a line: Antiproliferative assay (GI50, MTS). Particulars: for antiproliferative potency / GI50 values (in words): Table 1 (1A9 and mutant lines). The assay is classed as cell-based.
Assay [2] concerns 1A9/Ptx10 (Phe270 −> Val) β-tubulin mutant cells. Nature of the assay: Antiproliferative assay (GI50, MTS), paclitaxel-resistant clone. Particulars: for fold-resistance: 1A9/Ptx10 versus parental 1A9. The assay is classed as cell-based, human.
Assay [3] concerns 1A9/Ptx22 (Ala364 −> Thr) β-tubulin mutant cells. Described as above. The assay is classed as cell-based, human. To be noted: for fold-resistance: 1A9/Ptx22 versus parental 1A9.
The test system of a further assay is T1, Bovine brain tubulin.
T1 construct: Bovine brain tubulin (10 μM) in 0.2 M MSG, 15 min at 20° C
The experiment in a line: Pelleting assay (tubulin assembly EC50 determination). The assay is classed as biochemical. Particulars: for % Tubulin polymerized by 50 μM test agent / EC50: tubulin 10 μM in 0.2 M MSG, 15 min at 20° C.; for EC50: concentration required to polymerize 50% of tubulin, read-out: EC50 (μM) ± SD (N). How it is done: Dictyostatin and representative analogs were evaluated in a quantitative assay for their ability to promote tubulin polymerization. […] When the percent polymer formed was determined in the reactions, a comparison of the activities of all the analogs could be made.
The assay was performed under three different reaction conditions following the procedure reported earlier (Gapud et al., 2004). Reaction condition 1 included 0.2 M monosodium glutamate (MSG), 10 μM tubulin, 5% DMSO and varying concentrations of test agents. Reaction condition 2 included 0.8 M MSG, 400 μM GTP, 10 μM tubulin, 5% DMSO, and varying concentrations of test agents. Reaction condition 3 had 0.6 M MSG, 200 μM GTP, and 10 μM tubulin, and 5% DMSO, and varying concentrations of the test agents. The experimental protocol for all the three reaction conditions was the following. The reaction mixtures were incubated at room temperature (20-22° C.) for 15 min and spun for 10 min at 14,000 rpm in an Eppendorf microtube centrifuge. Aliquots of the supernatants were removed and assayed for protein content by the method of Lowry.

Assay [4] concerns microtubules (tubulin polymer). The experiment in a line: Radiolabeled ligand binding assays. To be noted: for potency relative to 1 in inhibiting the binding of radiolabeled paclitaxel to microtubules: relative to dictyostatin 1.
The subject of assay [5] is purified bovine brain tubulin. The experiment in a line: Tubulin polymerization assay (turbidity). The assay is classed as biochemical. To be noted: tubulin 1 mg/mL ± MAPs ± GTP, agents at 10 and 40 μM, 0 to 30° C. The procedure: The abilities of the new compounds to cause tubulin polymerization were determined under reaction conditions consisting of purified bovine brain tubulin (1 mg/mL) in the presence or absence of microtubule-associated proteins (MAPs, 0.75 mg/mL) and GTP (100 μM). Test agents were initially screened at 10 and 40 μM. In these experiments, test agent-induced assembly of soluble tubulin into polymer, with respect to the presence and absence of cofactors and at different temperatures, was monitored in a multi-cuvette, temperature-controlled spectrophotometer via development of turbidity in the solution. The initial temperature was closely controlled at 0° C., then rapidly raised to 10° C., to 20° C., then finally to 30° C. to determine both the temperature at which a test agent induced assembly as well as the extent of agent-induced assembly. The temperature increases were followed by a rapid decrease in temperature back to 0° C. to determine the cold-stability of polymer formed.
Tubulin assembly was monitored turbidimetrically in Gilford 250 spectrophotometers equipped with electronic temperature controllers as described previously (ter Haar et al., 1996). The reaction mixtures without the compounds consisted of tubulin (1 mg/ml), heat-treated MAPs (0.75 mg/ml, if present), GTP (100 μM, if present), and 0.1M (4-morpholinyl)ethane sulfonate (MeS). Baselines were established after addition of all reaction components except the compounds to the cuvettes held at 0° C. Compounds, at 10 μM or 40 μM final concentration, were then added and each reaction mixture (0.25 mL final volume) was subjected to the indicated temperature changes.

The mark [6] stands for this setting: Homo sapiens, Ovarian carcinoma cell, 72 h, read-out: GI50 ± S.D., 1A9 parental cells, 72 h incubation.
Setting [7] is: Homo sapiens, 1A9/ptx-10, 72 h, read-out: GI50 ± S.D., 1A9/Ptx10 (Phe270 −> Val), 72 h incubation.
[8] abbreviates: Homo sapiens, 1A9/ptx-22, 72 h, read-out: GI50 ± S.D., 1A9/Ptx22 (Ala364 −> Thr), 72 h incubation.
Setting [9] is: test agent 4 μM, radiolabel 4.0 μM, 37° C.

SMILES strings stand for the structures. Read-outs that look alike come from different tables or passages of the source.

For orientation: EC50 means the concentration giving half of the maximal effect.

Take `C=CC=CC(C)C1OC(=O)C=CC=CC(C)C(O)CC(O)C=CC(C)C(O)C(C)CCCCC(O)C1C` [Compound 79, (8S,10S,14R,20R)-Tetrahydroxy-(7R,13S,15S,21S)-tetramethyl-(22S)-((1S)-methylpenta-2,4-dienyl)-oxacyclodocosa-3,5,11-trien-2-one]: the GI50 in assay [1] (setting [6]) was 0.00041 ± 0.00052 µM; in assay [2] (setting [7]), 0.47 ± 0.07 µM; in assay [3] (setting [8]), 0.0056 ± 0.0047 µM. Also, the “antiproliferative potency / GI50 values (in words)” value in assay [1] is on record as “essentially equipotent to 1”. Further, the fold-resistance in assay [2] was 1146 fold; in assay [3], 14 fold. Besides, in the assay with Bovine brain tubulin, the “% Tubulin polymerized by 50 μM test agent” value (“% Tubulin polymerized” for short) amounted to 91 ± 6%. The 50% effective concentration (EC50) with Bovine brain tubulin was found to be 14 ± 7 µM. Moreover, the “potency relative to 1 in inhibiting the binding of radiolabeled paclitaxel to microtubules” value in assay [4] is “ca. 60%”. Further, the “Percent inhibition of radiolabel from microtubules, [3H]Paclitaxel” value (“Percent inhibition … [3H]Paclitaxel” below) in assay [4] (setting [9]) was 48 ± 3 (3) %. In assay [5], the “test agent-induced tubulin assembly, turbidity profile (in words)” value (“test agent-induced tubulin assembly” for short) is recorded as “especially potent among the analogs”.

Regarding `C=C/C=C\[C@H](C)[C@@H]1OC(=O)/C=C\C=C\[C@@H](C)[C@@H](O)C[C@H](O)/C=C\[C@H](C)[C@H](O)[C@@H](C)C[C@@H](C)CC[C@@H](O)[C@@H]1C` [dictyostatin-1, (8S,10S,14R,20R)-Tetrahydroxy-(7R,13S,15S,17S,21S)-pentamethyl-(22S)-((1S)-methylpenta-2,4-dienyl)oxacyclodocosa-3,5,11-trien-2-one, reference compound], the GI50 in assay [1] (setting [6]) was 0.00069 ± 0.0008 µM. In assay [2], the fold-resistance came out at 4.6 fold. In assay [2] (setting [7]), the GI50 came out at 0.0032 ± 0.0024 µM. In assay [3], the fold-resistance worked out at 1.9 fold. Further, the GI50 in assay [3] (setting [8]) is 0.0013 ± 0.001 µM. In addition, in the assay on Bovine brain tubulin, the “% Tubulin polymerized” value is on record as 99 ± 4% and the EC50 stood at 3.1 ± 0.2 µM. Also, in assay [4] (setting [9]), the “Percent inhibition of radiolabel from microtubules, [3H]Discodermolide” value is given as 40 ± 3 (3) %; the “Percent inhibition … [3H]Paclitaxel” value was 75 ± 5 (3) %; the “Percent inhibition of radiolabel from microtubules, [14C]Epothilone B” value is 88 ± 1 (3) %. In addition, the “test agent-induced tubulin assembly” value in assay [5] is reported as “far more potent than those of paclitaxel”.

Take `C=C/C=C\[C@H](C)[C@H](OC(N)=O)[C@@H](C)[C@H](O)[C@@H](C)C/C(C)=C\[C@H](C)[C@@H](O)[C@@H](C)/C=C\[C@@H](O)C[C@@H]1OC(=O)[C@H](C)[C@@H](O)[C@H]1C` [discodermolide, reference compound]: the GI50 in assay [1] (setting [6]) came to 0.0017 ± 0.0012 µM; in assay [2] (setting [7]), 0.0062 ± 0.0036 µM; in assay [3] (setting [8]), 0.007 ± 0.0084 µM. The fold-resistance in assay [2] is on record as 3.6 fold; in assay [3] it was 4.1 fold. The “% Tubulin polymerized” value in the assay on Bovine brain tubulin worked out at 98 ± 5%. Besides, the EC50 in the assay with Bovine brain tubulin turned out to be 3.6 ± 0.4 µM. Besides, the “Percent inhibition … [3H]Paclitaxel” value in assay [4] (setting [9]) is 76 ± 6 (4) %. In addition, the “Percent inhibition of radiolabel from microtubules, [14C]Epothilone B” value in assay [4] (setting [9]) is 90 ± 1 (3) %. The “test agent-induced tubulin assembly” value in assay [5] is “far more potent than those of paclitaxel”.

`C=CC=CC(C)C1OC(=O)C=CC=CC(C)C(O)CC(O)C=CC(C)C(O)C(C)CC(C)CCC(O)C1C` [Compound 59, (8S,10S,14R,20S)-Tetrahydroxy-(7R,13S,15S,17S,21s)-pentamethyl-(22S)-((1S)-methylpenta-2,4-dienyl)-oxacyclodocosa-3,5,11-trien-2-one]: the “antiproliferative potency / GI50 values (in words)” value in assay [1] is given as “mid-nanomolar range”. The GI50 in assay [1] (read-out: GI50 ± S.D., 1A9 parental cells, 72 h incubation) stood at 0.021 ± 0.014 µM; in assay [2] (read-out: GI50 ± S.D., 1A9/Ptx10 (Phe270 −> Val), 72 h incubation), 0.12 ± 0.06 µM; in assay [3] (read-out: GI50 ± S.D., 1A9/Ptx22 (Ala364 −> Thr), 72 h incubation) it was 0.043 ± 0.012 µM. The values for the fold-resistance in assay [2] and in assay [3] were 5.7 fold and 2.0 fold, respectively. Besides, the “percent polymer formed (in words)” value in the assay on Bovine brain tubulin is reported as “moderate activity”. In the assay on Bovine brain tubulin, the “% Tubulin polymerized” value came to 30 ± 2%. For the same compound, in the assay with Bovine brain tubulin, the EC50 is above 50 µM. The “Percent inhibition … [3H]Paclitaxel” value in assay [4] (setting [9]) is recorded as 7 ± 2 (3) %. In addition, the “test agent-induced tubulin assembly” value in assay [5] was “caused tubulin assembly at temperatures lower than 30 °C”.

In the case of `C=C/C=C\[C@H](C)[C@H](O)[C@@H](C)[C@H](O)CC[C@H](C)C[C@H](C)[C@@H](O)[C@@H](C)/C=C\[C@@H](O)C[C@H](O)[C@H](C)/C=C/C=C\C(=O)OC` [Compound 50, (2Z,4E,6R,7S,9S,10Z,12S,13R,14S,16S,19R,20S,21S,22S,23Z)-Methyl-7,9,13,19,21-penta-hydroxy-6,12,14,16,20,22-hexamethylhexacosa-2,4,10,23,25-pentaenoate], the GI50 in assay [1] (setting [6]) was found to be 0.056 ± 0.016 µM; in assay [2] (setting [7]), 0.079 ± 0.013 µM; in assay [3] (setting [8]), 0.085 ± 0.002 µM. The “antiproliferative potency / GI50 values (in words)” value in assay [1] was “mid-nanomolar range”. For the same compound, the fold-resistance in assay [2] is given as 1.4 fold; in assay [3], 1.5 fold. The “percent polymer formed (in words)” value in the assay with Bovine brain tubulin is on record as “moderate activity”. Besides, in the assay on Bovine brain tubulin, the “% Tubulin polymerized” value came to 39 ± 7%. Further, the EC50 with Bovine brain tubulin is above 50 µM. In addition, the “potency relative to 1 in inhibiting the binding of radiolabeled paclitaxel to microtubules” value in assay [4] is “ca. 60%”. In assay [4] (setting [9]), the “Percent inhibition … [3H]Paclitaxel” value is reported as 42 ± 1 (3) %. In addition, the “test agent-induced tubulin assembly” value in assay [5] was “caused tubulin assembly at temperatures lower than 30 °C”.

The values are drawn from patent publication US7321046B2, “Analogs of dictyostatin, intermediates therefor and methods of synthesis thereof” (University of Pittsburgh, priority 2002, dated 2008).
